pEC50: −log10 of the molar value. Like-named read-outs stand apart in the source and are kept apart here.
Columns and labels:
SJCRH-30 RMS xenograft = format: in vivo; details: SJCRH-30, RMS
Experimental: Expand human RMS cancer cells SJCRH-30 (St. Jude Children's Research Hospital) in culture, harvest, and inject 5×10^6 cells in 200 μL of HBSS subcutaneously into the right rear flank of female athymic nude mice (20-22 g, Harlan Laboratories).
For all studies, measure tumor growth and body weight twice per week beginning on the seventh day after implantation. When tumor size reaches 150-300 mm^3, randomize animals and group into groups of 4-7 animals. Prepare test compound in an appropriate vehicle (e.g. vehicle can be 20% Captisol® in sterile water) and administer subcutaneously for three consecutive days followed by a four day dosing holiday and repeat for a minimum of four weeks. Tumor response is determined by tumor volume measurement performed twice per week during the course of treatment.
The vehicle used in this study is 20% Captisol® in sterile water and is administered subcutaneously for three consecutive days followed by a four day dosing holiday and repeated for a minimum of four weeks. […] The treatment period lasts 4 weeks.

HT-29 cells = assay: ECtfs (Two-Fold Sensitization) Assay; format: cell-based; details: gemcitabine alone
Experimental: An inhibitor of CHK1 can potentiate the anti-proliferative activity of gemcitabine (or other cytotoxics) through abrogation of the intra-S phase checkpoint, resulting in sustained and increased DNA damage. The capacity for continued tumor cell proliferation after DNA damage can be analyzed by determining the ability of cells to replicate their DNA. […] In this assay, cells are treated with gemcitabine, and then with the compound of Example 2. Following a recovery period, cells are assayed for the ability to incorporate radioactive thymidine into DNA during S phase. The ECtfs parameter is a measure of the concentration of a CHK1 inhibitor necessary to reduce by half the GI90 concentration of gemcitabine, measured in this assay in the absence of CHK1 inhibition. HT-29 cells (obtained from ATCC), are grown in RPMI 1640 plus (Gibco™) 10% (v/v) heat inactivated FBS. These cells are plated at 1.3×10^3 per well on Corning Costar 96-well tissue culture plates. After plating the cells, the tissue culture plates are held at room temperature for 45 minutes, before returning to 37° C. Plates are incubated for 24 hours prior to gemcitabine addition. Before gemcitabine addition, medium is removed from all wells and replaced with 150 μL per well of fresh RPMI medium. Gemcitabine stocks at 10 mM are prepared in PBS. Gemcitabine dilutions were prepared at 4× concentrations in RPMI medium and added to wells at 50 μL per well. The highest final concentration of gemcitabine used is 80 μM and dilutions proceed by four-fold steps. Two hours later, gemcitabine-containing medium is removed from the wells and replaced with 150 μL per well of fresh RPMI medium. […] The volume of addition is 50 μL. Compound dilutions proceed by two-fold steps, starting at 5000 nM. […] Twenty μL of this solution is added to each well, yielding 1 µCi/well of ^3H-thymidine. Cells are labeled for twenty-two hours. The medium containing ^3H-thymidine is thoroughly removed from the wells. The plates are then frozen at −20° C., for several hours. To harvest the DNA containing incorporated ^3H-thymidine, plates are thawed for several minutes, and then 120 μL per well of 0.1 N NaOH is added to each well. Each plate is then incubated at 37° C., with slow mixing on a rotator, for 10 minutes. DNA is harvested with a Filtermate 196 Harvester (PerkinElmer) and collected on 96-well Unifilter GF/C plates (PerkinElmer #6005174). The wells of the tissue culture plate on which cells had been labeled are washed with water (5×). The Unifilter plate membranes are washed with an additional 4.5 mL per well (3×1.0 mL and finally a 1.5 mL wash). The Unifi is sealed with a Backseal adhesive sheet (PerkinElmer), and the 50 μL/well of MicroScint-20 (Perkin Elmer) is added. Each plate is then sealed with a Topseal clear adhesive sheet (PerkinElmer). Plates are counted on a Topcount scintillation counter (PerkinElmer), at 1 minute per well. ^3H-thymidine counts per minute (cpm) are exported into Prism (GraphPad) for analysis and plotting. […] For plotting the data in Prism, the gemcitabine concentrations are transformed to log values, and dose-response curves are fit by non-linear regression. Neither top nor bottom fits are constrained. The ECtfs value is 0.3 nM.

COc1cccc2c1C(=O)c1c(O)c3c(c(O)c1C2=O)C[C@@](O)(C(=O)CO)C[C@@H]3O[C@H]1C[C@H](N)[C@H](O)[C@H](C)O1 [Doxorubicin, reference compound]
% T/C (SJCRH-30 RMS xenograft; comparator day 56): 16%

Nc1ccn([C@@H]2O[C@H](CO)[C@@H](O)C2(F)F)c(=O)n1 [gemcitabine, reference compound]
percentage of proliferation inhibition (HT-29 cells; HT29 cells): 52%
pEC50 (HT-29 cells; Homo sapiens, HT-29, HT29 colon carcinoma cells): 7.43

O=P1(NCCCl)OCCCN1CCCl (centres unmarked) [ifosphamide, reference compound]
% T/C (SJCRH-30 RMS xenograft; comparator day 46): 34%

CCc1c2c(nc3ccc(OC(=O)N4CCC(N5CCCCC5)CC4)cc13)-c1cc3c(c(=O)n1C2)COC(=O)[C@]3(O)CC [irinotecan, reference compound]
% T/C (SJCRH-30 RMS xenograft; comparator day 46): 12%

From US12558345B2, “CHK1/2 inhibitors for use in the treatment of neuroblastomas and/or soft tissue sarcomas” (Eli Lilly and Company, priority 2015, dated 2026)
